Measured values taken from patent publication US20240148821A1, “PHARMACEUTICAL USE OF CYCLIC PEPTIDE COMPOUND” (CHUGAI SEIYAKU KABUSHIKI KAISHA, priority 2021, published 2024).
Numbered stars: 1 amine (or outer) side, 2 acyl side, 3 side chain; on linkers, the order of the positions; unused ones are H or OH. Bridge positions count the residues as written; N and C are the ends. Square brackets hold non-standard residues; d marks the D form. Peptide text beside a SMILES is read from it. * marks the point of attachment. NMeAbu(3,3-F2-piperidino) = CN[C@@H](CCN1CCCC(F)(F)C1)C(=O)O; hPhe(3-Cl-4-CF3) = N[C@@H](CCc1ccc(C(F)(F)F)c(Cl)c1)C(=O)O; Phe(3-CF3) = N[C@@H](Cc1cccc(C(F)(F)F)c1)C(=O)O; NMePhe(4-Cl) = CN[C@@H](Cc1ccc(Cl)cc1)C(=O)O; NMePhe(2-CN) = CN[C@@H](Cc1ccccc1C#N)C(=O)O; NMePhe(4-Me) = CN[C@@H](Cc1ccc(C)cc1)C(=O)O; NMedβ3hAla = C[C@H](CC(=O)[*:2])N(C)[*:1]; NMeGly(cPent) = CN[C@H](C(=O)O)C1CCCC1; Phe(3-I) = N[C@@H](Cc1cccc(I)c1)C(=O)O; X67 = O=C([C@@H]1CCC[C@H]1N[*:1])[*:2]; NMeCha = CN[C@@H](CC1CCCCC1)C(=O)O; NMeI = CC[C@H](C)[C@H](NC)C(=O)O; NMeD = CN[C@@H](CC(=O)O)C(=O)O; NMeL = CN[C@@H](CC(C)C)C(=O)O; NMeV = CN[C@H](C(=O)O)C(C)C; Pip = O=C(O)[C@@H]1CCCCN1; NMeA = CN[C@@H](C)C(=O)O; NMeAib = CNC(C)(C)C(=O)O; Nle = CCCC[C@H](N)C(=O)O; Piperidide = C1CCN(*)CC1; dNMeA = CN[C@H](C)C(=O)O; Ac5c = NC1(C(=O)O)CCCC1; Aze = O=C(O)[C@@H]1CCN1; Sar = CNCC(=O)O

system: Human pancreatic cancer cell line AsPC-1 (G12D mutation Kras); assay: AsPC-1 cell growth inhibition (AsPC-1 CGI); assay type: cell-based; details: read-out: AsPC-1 cell growth inhibition, 50% growth inhibitory concentration (IC50 value); 96 hours, CellTiter-Glo, values classified in ranges
Protocol: Test compounds were serially dilated with dimethyl sulfoxide, and 200 nL was then dispensed to a U-bottom 96-well plate using Labcyte Echo. […] The cell suspension was dispensed to a. plate containing a test compound at 100 μL per well and incubated at 37° C. in a 5% carbon dioxide gas incubator. 96 hours later, 80 μL of CellTiter-Glo (Promega) was added to each well and fluorescence was measured.

Structure (SMILES) | IC50 [nM]
CC[C@H](C)[C@@H]1NC(=O)[C@H](CC(C)C)N(C)C(=O)[C@@H]2CCC[C@H]2NC(=O)[C@H](C(C)C)N(C)C(=O)C2(CCCC2)NC(=O)[C@@H]2CCCN2C(=O)[C@H](CCc2ccc(C(F)(F)F)c(Cl)c2)NC(=O)CN(C)C(=O)[C@H](CC2CCCCC2)N(C)C(=O)CN(C)C(=O)CN(C)C1=O [Compound 347] (cyclo([Ac5c][NMeV][X67][NMeL]I[Sar][Sar][NMeCha][Sar][hPhe(3-Cl-4-CF3)]P)) | > 500
CCCC[C@@H]1NC(=O)[C@H](CCc2ccc(C(F)(F)F)c(Cl)c2)NC(=O)CN(C)C(=O)[C@H](Cc2ccc(Cl)cc2)N(C)C(=O)[C@@H]2CCN2C(=O)CN(C)C(=O)[C@H]([C@@H](C)CC)NC(=O)[C@@H]2CCCCN2C(=O)C[C@@H](C(=O)N2CCCCC2)N(C)C(=O)[C@H](CC(C)C)NC(=O)C(C)(C)N(C)C1=O [Compound 352] ([Pip]I[Sar][Aze][NMePhe(4-Cl)][Sar][hPhe(3-Cl-4-CF3)][Nle][NMeAib]L[NMeD]-Piperidide; lactam N-11) | > 500
CC[C@H](C)[C@@H]1NC(=O)[C@H](CC(C)C)N(C)C(=O)C[C@@H](C)N(C)C(=O)[C@H](C(C)C)N(C)C(=O)C2(CCCC2)NC(=O)[C@@H]2CCCN2C(=O)[C@H](CCc2ccc(C(F)(F)F)c(Cl)c2)NC(=O)CN(C)C(=O)[C@H](Cc2ccccc2C#N)N(C)C(=O)CN(C)C(=O)CN(C)C1=O [Compound 357] (cyclo([Ac5c][NMeV][NMedβ3hAla][NMeL]I[Sar][Sar][NMePhe(2-CN)][Sar][hPhe(3-Cl-4-CF3)]P)) | > 500
CC[C@H](C)[C@@H]1NC(=O)[C@H](CC(C)C)N(C)C(=O)C[C@@H](C(=O)N(C)C)N(C)C(=O)[C@H](C2CCCC2)N(C)C(=O)C2(CCCC2)NC(=O)[C@@H]2CCCN2C(=O)[C@H](CCc2ccc(C(F)(F)F)c(Cl)c2)NC(=O)CN(C)C(=O)[C@H](Cc2ccc(C)cc2)N(C)C(=O)[C@@H]2CCN2C(=O)[C@H](C)NC1=O [Compound 363] ([NMeL]IA[Aze][NMePhe(4-Me)][Sar][hPhe(3-Cl-4-CF3)]P[Ac5c][NMeGly(cPent)][NMeD]-NMe2; lactam N-11) | ≤ 20
CC[C@H](C)[C@@H]1NC(=O)[C@H](CC(C)C)NC(=O)C[C@@H](C(=O)N2CCCCC2)N(C)C(=O)[C@H](C(C)C)N(C)C(=O)C2(CCCC2)NC(=O)[C@@H]2CCCN2C(=O)[C@H](CCc2ccc(C(F)(F)F)c(Cl)c2)NC(=O)CN(C)C(=O)[C@H](CC2CCCCC2)N(C)C(=O)[C@@H]2CCN2C(=O)[C@H](C)N(C)C1=O [Compound 368] (LI[NMeA][Aze][NMeCha][Sar][hPhe(3-Cl-4-CF3)]P[Ac5c][NMeV][NMeD]-Piperidide; lactam N-11) | > 500
CC[C@H](C)[C@@H]1NC(=O)[C@H](CC(C)C)N(C)C(=O)C[C@@H](C(=O)N2CCCCC2)N(C)C(=O)[C@H](CC(C)C)NC(=O)C(C)(C)N(C)C(=O)[C@H](Cc2cccc(C(F)(F)F)c2)NC(=O)[C@H](Cc2cccc(I)c2)NC(=O)CN(C)C(=O)[C@H](Cc2ccc(C)cc2)N(C)C(=O)CN(C)C(=O)CN(C)C1=O [Compound 376] ([NMeL]I[Sar][Sar][NMePhe(4-Me)][Sar][Phe(3-I)][Phe(3-CF3)][NMeAib]L[NMeD]-Piperidide; lactam N-11) | > 500
CC[C@H](C)[C@@H]1NC(=O)[C@H](CC(C)C)N(C)C(=O)C[C@@H](C(=O)N(C)C)N(C)C(=O)[C@H]([C@@H](C)CC)N(C)C(=O)C2(CCCC2)NC(=O)[C@H](C)N(C)C(=O)[C@H](CCc2ccc(C(F)(F)F)c(Cl)c2)NC(=O)CN(C)C(=O)[C@H](Cc2ccc(C)cc2)N(C)C(=O)[C@@H]2CCN2C(=O)[C@H](C)N(C)C1=O [Compound 378] ([NMeL]I[NMeA][Aze][NMePhe(4-Me)][Sar][hPhe(3-Cl-4-CF3)][NMeA][Ac5c][NMeI][NMeD]-NMe2; lactam N-11) | ≤ 20
CC[C@H](C)[C@@H]1NC(=O)[C@H](CC(C)C)N(C)C(=O)C[C@@H](C(=O)N(C)C)N(C)C(=O)[C@H]([C@@H](C)CC)N(C)C(=O)[C@H](C(C)C)NC(=O)[C@H](CCN2CCCC(F)(F)C2)N(C)C(=O)[C@H](CCc2ccc(C(F)(F)F)c(Cl)c2)NC(=O)CN(C)C(=O)[C@H](Cc2ccc(C)cc2)N(C)C(=O)[C@@H]2CCN2C(=O)[C@H](C)N(C)C1=O [Compound 379] ([NMeL]I[NMeA][Aze][NMePhe(4-Me)][Sar][hPhe(3-Cl-4-CF3)][NMeAbu(3,3-F2-piperidino)]V[NMeI][NMeD]-NMe2; lactam N-11) | > 500
CC[C@H](C)[C@@H]1NC(=O)[C@H](C)N(C)C(=O)C[C@@H](C(=O)N2CCCCC2)N(C)C(=O)[C@H](C(C)C)N(C)C(=O)C2(CCCC2)NC(=O)[C@@H]2CCCN2C(=O)[C@H](CCc2ccc(C(F)(F)F)c(Cl)c2)NC(=O)[C@@H](C)N(C)C(=O)[C@H](CC2CCCCC2)N(C)C(=O)CN(C)C(=O)CN(C)C1=O [Compound 380] ([NMeA]I[Sar][Sar][NMeCha][dNMeA][hPhe(3-Cl-4-CF3)]P[Ac5c][NMeV][NMeD]-Piperidide; lactam N-11) | > 500
